Test results reported in patent publication US20260219279A1, “IMPROVED HIGH-THROUGHPUT HYDROGEN-DEUTERIUM EXCHANGE-MASS SPECTROMETRY SYSTEM AND METHOD” (THE BOARD OF REGENTS OF THE UNIVERSITY OF OKLAHOMA, priority 2023, published 2026).

Experiments:
60 kDa chaperonin = biological target: T1, 60 kDa chaperonin (Escherichia coli, UniProt P0A6F5); experiment: Differential PTD-HDX-MS in 60° C.-depleted E. coli cell lysate; format: binding; settings: 60° C.-PTD sample
T1 construct: endogenous in cells; host or cells: E. coli cell lysate
T1 sequence (P0A6F5 2-548): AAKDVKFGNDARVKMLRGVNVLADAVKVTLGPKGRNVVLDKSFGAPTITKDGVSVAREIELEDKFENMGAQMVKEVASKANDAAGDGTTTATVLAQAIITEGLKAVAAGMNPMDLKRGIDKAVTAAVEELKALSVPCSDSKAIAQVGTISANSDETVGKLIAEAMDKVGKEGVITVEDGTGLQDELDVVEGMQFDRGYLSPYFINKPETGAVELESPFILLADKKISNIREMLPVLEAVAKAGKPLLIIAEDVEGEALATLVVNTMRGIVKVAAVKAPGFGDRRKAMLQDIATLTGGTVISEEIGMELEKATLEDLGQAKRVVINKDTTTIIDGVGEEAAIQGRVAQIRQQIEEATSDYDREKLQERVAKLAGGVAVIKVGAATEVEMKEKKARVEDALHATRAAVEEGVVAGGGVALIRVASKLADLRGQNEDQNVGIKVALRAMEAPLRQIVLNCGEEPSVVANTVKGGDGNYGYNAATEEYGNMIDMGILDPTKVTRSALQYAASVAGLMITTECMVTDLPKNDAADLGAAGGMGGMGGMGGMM
Experimental: (§1) Samples were prepared in triplicate.
(§2) The flowrate was controlled at 150 μL/min.
(§3) The decoy database was automatically generated in MSGF+ software.

[1] = biological target: T2, alkyl hydroperoxide reductase C (Escherichia coli, UniProt P0AE08); experiment: as above; format: binding; settings: 60° C.-PTD sample
T2 construct: endogenous in cells; host or cells: E. coli cell lysate
T2 sequence (P0AE08 2-187): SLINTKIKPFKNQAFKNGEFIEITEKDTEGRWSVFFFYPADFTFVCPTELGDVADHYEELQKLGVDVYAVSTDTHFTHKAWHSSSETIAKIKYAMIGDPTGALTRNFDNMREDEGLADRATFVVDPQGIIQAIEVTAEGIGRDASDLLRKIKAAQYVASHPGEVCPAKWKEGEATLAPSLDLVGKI
Experimental: as §1, §2, §3

Q: What does the source list for `CC(=O)Nc1nnc(S(N)(=O)=O)s1` [AZM, Acetazolamide]?
A: deuterium uptake difference of characterized peptides following AZM treatment (60 kDa chaperonin): no significant differences; deuterium uptake difference of characterized peptides following AZM treatment [1]: no significant differences
